One assay deals with T1, F508del (Homo sapiens, UniProt P13569, DEL508-508).
T1 construct: expressed in transfected cells
T1 sequence (P13569 with tags, fused parts or gaps DEL508-508): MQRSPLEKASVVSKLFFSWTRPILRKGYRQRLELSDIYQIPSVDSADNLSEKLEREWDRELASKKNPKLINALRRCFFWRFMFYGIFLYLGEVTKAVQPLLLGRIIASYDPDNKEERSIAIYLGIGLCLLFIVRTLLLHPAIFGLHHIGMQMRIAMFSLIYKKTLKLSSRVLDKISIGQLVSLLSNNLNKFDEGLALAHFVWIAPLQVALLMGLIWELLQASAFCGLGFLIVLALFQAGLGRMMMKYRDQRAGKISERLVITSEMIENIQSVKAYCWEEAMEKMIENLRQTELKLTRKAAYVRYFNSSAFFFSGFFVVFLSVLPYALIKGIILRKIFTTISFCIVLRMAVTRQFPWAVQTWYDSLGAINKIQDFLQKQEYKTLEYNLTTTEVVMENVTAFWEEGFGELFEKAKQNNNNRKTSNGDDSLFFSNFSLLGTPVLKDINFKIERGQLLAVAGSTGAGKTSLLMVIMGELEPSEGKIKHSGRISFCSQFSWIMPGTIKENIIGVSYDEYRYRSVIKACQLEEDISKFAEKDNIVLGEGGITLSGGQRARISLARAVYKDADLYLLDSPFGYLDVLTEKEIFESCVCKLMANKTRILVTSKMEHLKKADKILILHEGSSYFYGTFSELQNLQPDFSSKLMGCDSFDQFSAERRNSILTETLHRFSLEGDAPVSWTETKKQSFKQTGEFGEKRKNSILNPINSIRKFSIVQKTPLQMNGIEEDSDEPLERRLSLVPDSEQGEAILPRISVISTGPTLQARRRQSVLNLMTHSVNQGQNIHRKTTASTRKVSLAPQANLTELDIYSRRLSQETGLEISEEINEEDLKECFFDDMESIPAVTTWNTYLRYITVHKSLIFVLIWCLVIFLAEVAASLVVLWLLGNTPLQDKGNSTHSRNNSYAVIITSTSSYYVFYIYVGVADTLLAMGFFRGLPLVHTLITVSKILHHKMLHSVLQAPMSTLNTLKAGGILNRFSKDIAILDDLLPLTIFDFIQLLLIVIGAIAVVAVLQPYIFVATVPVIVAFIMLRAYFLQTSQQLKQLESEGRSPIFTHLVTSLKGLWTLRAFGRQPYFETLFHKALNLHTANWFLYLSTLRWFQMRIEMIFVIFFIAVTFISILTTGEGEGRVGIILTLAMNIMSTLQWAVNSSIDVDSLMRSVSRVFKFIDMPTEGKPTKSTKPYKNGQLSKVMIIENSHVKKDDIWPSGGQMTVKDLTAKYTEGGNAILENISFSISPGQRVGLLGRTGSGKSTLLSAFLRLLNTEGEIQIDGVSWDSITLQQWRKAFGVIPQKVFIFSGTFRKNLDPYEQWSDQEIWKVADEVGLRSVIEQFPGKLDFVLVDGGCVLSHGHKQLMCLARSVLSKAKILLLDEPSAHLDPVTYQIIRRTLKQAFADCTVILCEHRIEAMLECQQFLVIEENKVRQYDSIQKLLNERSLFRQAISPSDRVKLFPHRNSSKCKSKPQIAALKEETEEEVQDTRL
Description: Protocol 2: FRET membrane potential optical assay (VIPR), identification of correction compounds. In kind it is cell-based. The note with it: F508del CFTR modulator activity; compounds of Table 1. In short, it runs like this:
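FRET read-out (CC2-DMPE donor, DiSBAC2(3) voltage-sensitive acceptor) of membrane depolarization on VIPR II. Corrector candidates incubated 16 hrs at 37° C. with NIH3T3 cells expressing F508del; temperature correction at 27° C. as positive control; stimulation by 10 μM forskolin, 20 μM genistein, chloride-free gluconate bath.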
Regarding `[2H]C([2H])([2H])C([2H])(COc1cc(F)cc(-c2ccc(C(=O)NS(=O)(=O)c3cccc(N)n3)c(N3C[C@@H](C)CC3(C)C)n2)c1)C([2H])([2H])[2H]` [Compound 2708, N-[(6-amino-2-pyridyl)sulfonyl]-6-[3-fluoro-5-[2,3,3,3-tetradeuterio-2-(trideuteriomethyl)propoxy]phenyl]-2-[(4S)-2,2,4-trimethylpyrrolidin-1-yl]pyridine-3-carboxamide], the EC30 entry was “+++ (“+++” means <3 uM)”.

Staying with this assay, now noted: F508del CFTR modulator activity; compounds of Table 1; read-out: EC30.
Take `C[C@@H]1CN(c2nc(-c3cccc(OC(F)(F)F)c3)ccc2C(=O)NS(=O)(=O)N2CC[C@H](N)C2)C(C)(C)C1` [Compound 2029, N-[(3S)-3-aminopyrrolidin-1-yl]sulfonyl-6-[3-(trifluoromethoxy)phenyl]-2-[(4S)-2,2,4-trimethylpyrrolidin-1-yl]pyridine-3-carboxamide]: the EC30 is less than 3000 nM. On the same count and under the same terms, to `COc1c(F)cccc1-c1ccc(C(=O)NS(=O)(=O)c2cccnc2N)c(N2C[C@@H](C)CC2(C)C)n1` [Compound 2355, N-[(2-amino-3-pyridyl)sulfonyl]-6-(3-fluoro-2-methoxy-phenyl)-2-[(4S)-2,2,4-trimethylpyrrolidin-1-yl]pyridine-3-carboxamide] belongs less than 3000 nM; to `CC(C)Oc1ccccc1-c1ccc(C(=O)NS(=O)(=O)c2ccc[nH]c2=O)c(N2C[C@@H](C)CC2(C)C)n1` [Compound 2541, 6-(2-isopropoxyphenyl)-N-[(2-oxo-1H-pyridin-3-yl)sulfonyl]-2-[(4S)-2,2,4-trimethylpyrrolidin-1-yl]pyridine-3-carboxamide], less than 3000 nM. Still for that read-out and setting: to `COc1cccc(F)c1-c1ccc(C(=O)NS(=O)(=O)c2ccc[nH]c2=O)c(N2C[C@@H](C)CC2(C)C)n1` [Compound 2422, 6-(2-fluoro-6-methoxy-phenyl)-N-[(2-oxo-1H-pyridin-3-yl)sulfonyl]-2-[(4S)-2,2,4-trimethylpyrrolidin-1-yl]pyridine-3-carboxamide] belongs 3000 to 10000 nM; to `CC1CN(c2ncccc2C(=O)NS(=O)(=O)c2cccc(OCc3ccc(F)c(F)c3)n2)C(C)(C)C1` (stereo not drawn) [Compound 2533, N—[[6-[(3,4-difluorophenyl)methoxy]-2-pyridyl]sulfonyl]-2-(2,2,4-trimethylpyrrolidin-1-yl)pyridine-3-carboxamide], less than 3000 nM; to `CC1CN(c2ncccc2C(=O)NS(=O)(=O)c2cccc(N[C@H](C)C(C)(C)C)n2)C(C)(C)C1` (stereo partly drawn) [Compound 2745], less than 3000 nM. Still for that read-out and setting: to `CC1CN(c2ncccc2C(=O)NS(=O)(=O)c2cccc(NCCc3ccncc3)n2)C(C)(C)C1` (stereo not drawn) [Compound 2735] belongs 3000 to 10000 nM. With `CC1CN(c2ncccc2C(=O)NS(=O)(=O)c2cccc(OCc3c(F)cccc3Cl)n2)C(C)(C)C1` (stereo not drawn) [Compound 2717], the EC30 is less than 3000 nM. On to `CC1CN(c2ncccc2C(=O)NS(=O)(=O)c2cccc(Nc3ccc(F)c(F)c3)n2)C(C)(C)C1` (stereo not drawn) [Compound 2341, N—[[6-(3,4-difluoroanilino)-2-pyridyl]sulfonyl]-2-(2,2,4-trimethylpyrrolidin-1-yl)pyridine-3-carboxamide], for which the EC30 was less than 3000 nM.

Turning to `CC1CN(c2ncccc2C(=O)NS(=O)(=O)c2cccc(OCC3CCC3)n2)C(C)(C)C1` (stereo not drawn) [Compound 2188, N—[[6-(cyclobutylmethoxy)-2-pyridyl]sulfonyl]-2-(2,2,4-trimethylpyrrolidin-1-yl)pyridine-3-carboxamide], the EC30 is less than 3000 nM. On the same count and under the same terms, to `CCN(CC)c1ccc(Nc2cccc(S(=O)(=O)NC(=O)c3cccnc3N3CC(C)CC3(C)C)n2)cc1` (stereo not drawn) [Compound 2531, N—[[6-[4-(diethylamino)anilino]-2-pyridyl]sulfonyl]-2-(2,2,4-trimethylpyrrolidin-1-yl)pyridine-3-carboxamide] belongs less than 3000 nM. Take `CC(C)COc1cc(F)cc(-c2ccc(C(=O)NS(=O)(=O)c3cccc(N)n3)c(N3CC4(CCC4)CC3(C)C)n2)c1` [Compound 2589, N-[(6-amino-2-pyridyl)sulfonyl]-2-(6,6-dimethyl-7-azaspiro[3.4]octan-7-yl)-6-(3-fluoro-5-isobutoxy-phenyl)pyridine-3-carboxamide]: the concentration for an effect of 30% (EC30) was less than 3000 nM.

Turning to `CCOc1cc(C)cc(-c2ccc(C(=O)NS(=O)(=O)c3ccc[nH]c3=O)c(N3C[C@@H](C)CC3(C)C)n2)c1` [Compound 2512, 6-(3-ethoxy-5-methyl-phenyl)-N-[(2-oxo-1H-pyridin-3-yl)sulfonyl]-2-[(4S)-2,2,4-trimethylpyrrolidin-1-yl]pyridine-3-carboxamide], the EC30 is less than 3000 nM.

Staying with this assay, now noted: Table 3; compounds of Table 1 as modulators of CFTR activity; protocol not stated.
Turning to `COc1ncccc1S(=O)(=O)NC(=O)C1c2cccc(-c3ccccc3)c2CN1Cc1c(C)cc(C)cc1C` (stereo not drawn) [Compound 427, N-[(2-methoxy-3-pyridyl)sulfonyl]-4-phenyl-2-[(2,4,6-trimethylphenyl)methyl]isoindoline-1-carboxamide], the EC30 result is reported as “+++ (“+++” means <3 uM)”. Still for that read-out and setting: to `Cc1cc(C)c(Oc2nc(-c3ccccc3F)ccc2C(=O)NS(=O)(=O)c2cccc(N)n2)c(C)c1` [Compound 463, N-[(6-amino-2-pyridyl)sulfonyl]-6-(2-fluorophenyl)-2-(2,4,6-trimethylphenoxy)pyridine-3-carboxamide] belongs “++ (“++” means between 3 uM and 10 uM)”; to `Cc1ccccc1C(C)n1nc(C(C)(C)C)cc1C(=O)NS(=O)(=O)c1cccc(N)c1` (stereo not drawn) [Compound 342, N-(3-aminophenyl)sulfonyl-5-tert-butyl-2-[1-(o-tolyl)ethyl]pyrazole-3-carboxamide], “+++ (“+++” means <3 uM)”. For the compound `CN(c1ccccc1)c1nc(C(C)(C)C)ccc1C(=O)NS(=O)(=O)c1cccc(N)c1` [Compound 85, N-(3-aminophenyl)sulfonyl-6-tert-butyl-2-(N-methylanilino)pyridine-3-carboxamide], the EC30 result was “++ (“++” means between 3 uM and 10 uM)”. Take `CC(C)(C)c1cc(C(=O)NS(=O)(=O)c2cccc(N)c2)n(Cc2c(Cl)cccc2C(F)(F)F)n1` [Compound 189, N-(3-aminophenyl)sulfonyl-5-tert-butyl-2-[[2-chloro-6-(trifluoromethyl)phenyl]methyl]pyrazole-3-carboxamide]: the 30% effect concentration (EC30) result is given as “+++ (“+++” means <3 uM)”. Same read-out and setting: next, `Cc1ccc(-c2nc(C(C)(C)C)ccc2C(=O)NS(=O)(=O)c2cccc(N)c2)cc1` [Compound 301, N-(3-aminophenyl)sulfonyl-6-tert-butyl-2-(p-tolyl)pyridine-3-carboxamide]: “++ (“++” means between 3 uM and 10 uM)”; `CC(C)Oc1ccc(-c2ccc(C(=O)NS(=O)(=O)c3cccc(N)n3)c(N3CCC4(CCO4)CC3)n2)cn1` [Compound 729, N-[(6-amino-2-pyridyl)sulfonyl]-6-(6-isopropoxy-3-pyridyl)-2-(3-oxa-7-azaspiro[3.5]nonan-7-yl)pyridine-3-carboxamide]: “++ (“++” means between 3 uM and 10 uM)”; `Cc1cc(C)c(Cn2c(C(=O)NS(=O)(=O)c3ccccc3)cc3c(Cl)cccc32)c(C)c1` [Compound 127, N-(benzenesulfonyl)-4-chloro-1-[(2,4,6-trimethylphenyl)methyl]indole-2-carboxamide]: “+++ (“+++” means <3 uM)”. `Cc1cc(C)c(Cn2c(C(=O)NS(=O)(=O)c3ccccc3)cc3cc(F)ccc32)c(C)c1` [Compound 33, N-(benzenesulfonyl)-5-fluoro-1-[(2,4,6-trimethylphenyl)methyl]indole-2-carboxamide]: the 30% effect concentration (EC30) result is reported as “+++ (“+++” means <3 uM)”. Same read-out and setting: to `Cc1cc(C)c(Oc2nc(Cc3ccccc3)ccc2C(=O)NS(=O)(=O)c2cccc(N)n2)c(C)c1` [Compound 1, N-[(6-amino-2-pyridyl)sulfonyl]-6-benzyl-2-(2,4,6-trimethylphenoxy)pyridine-3-carboxamide] belongs “+++ (“+++” means <3 uM)”; to `CC(C)Oc1ccc(-c2ccc(C(=O)NS(=O)(=O)c3cccc(N)n3)c(N3CCC(C)C(C)(C)C3)n2)cn1` (stereo not drawn) [Compound 435, N-[(6-amino-2-pyridyl)sulfonyl]-6-(6-isopropoxy-3-pyridyl)-2-(3,3,4-trimethyl-1-piperidyl)pyridine-3-carboxamide], “+++ (“+++” means <3 uM)”.

`Cc1cc(C)c(Oc2nc(C(C)(C)C)ccc2C(=O)NS(=O)(=O)c2cc[nH]c(=O)c2)c(C)c1` [Compound 113, 6-tert-butyl-N-[(2-oxo-1H-pyridin-4-yl)sulfonyl]-2-(2,4,6-trimethylphenoxy)pyridine-3-carboxamide]: the EC30 result was “++ (“++” means between 3 uM and 10 uM)”. On the same count and under the same terms, next, `CC(C)COc1cc(F)cc(-c2ccc(C(=O)NS(=O)(=O)c3cccc(N)n3)c(N3CC(C)CC(C)(C)C3)n2)c1` (stereo not drawn) [Compound 560, N-[(6-amino-2-pyridyl)sulfonyl]-6-(3-fluoro-5-isobutoxy-phenyl)-2-(3,3,5-trimethyl-1-piperidyl)pyridine-3-carboxamide]: “+++ (“+++” means <3 uM)”; `COc1ccc(-c2nc(C(C)(C)C)ccc2C(=O)NS(=O)(=O)c2cccc(N)c2)cc1` [Compound 550, N-(3-aminophenyl)sulfonyl-6-tert-butyl-2-(4-methoxyphenyl)pyridine-3-carboxamide]: “++ (“++” means between 3 uM and 10 uM)”. For the compound `Cc1cc(C)c(Oc2nc(-c3cccnc3OCC(F)(F)F)ccc2C(=O)NS(=O)(=O)c2cccc(N)n2)c(C)c1` [Compound 697, N-[(6-amino-2-pyridyl)sulfonyl]-6-[2-(2,2,2-trifluoroethoxy)-3-pyridyl]-2-(2,4,6-trimethylphenoxy)pyridine-3-carboxamide], the EC30 entry is “+++ (“+++” means <3 uM)”.

With `CC(C)COc1cc(F)cc(-c2ccc(C(=O)NS(=O)(=O)c3cccc(N)n3)c(N3CC4CCC3C4)n2)c1` (stereo not drawn) [Compound 680, N-[(6-amino-2-pyridyl)sulfonyl]-2-(3-azabicyclo[2.2.1]heptan-3-yl)-6-(3-fluoro-5-isobutoxy-phenyl)pyridine-3-carboxamide], the EC30 entry was “+++ (“+++” means <3 uM)”.

As usually defined, the EC30 is the concentration at which the effect reaches the 30% level.

Source of the values: patent US10758534B2 (Vertex Pharmaceuticals Incorporated, priority 2014, dated 2020).
